# Test results taken from PubChem BioAssay AID296 (DTP/NCI, 2004).
# Several values for one entry are separate records, joined by “and”; a condition that tells them apart may be missing. Identical values can stand only once. Inconclusive results are not listed.
# Tested on: MX-1 breast xenograft, nude mice, tumor weight T/C
# Assay: NCI In Vivo Anticancer Drug Screen. Data for tumor model Human Mammary Carcinoma MX-1 Xenograft (intrarenal inoculation) in NU/NU Swiss (nude) mice
# Details: endpoint: mean tumor weight change, higher = larger tumour
# Outline: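 Compound dosed to mice with transplantable tumor; vehicle group as control. Endpoint survival or tumour size, reported as T/C.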
# [1] = dose: 150.0 mg/kg/injection, schedule: Q04DX003 (sc), vehicle: Klucel (hydroxypropylcellulose) (HPC)
# [2] = dose: 300.0 mg/kg/injection, schedule: Q04DX003 (sc), vehicle: saline with Tween-80
# [3] = dose: 600.0 mg/kg/injection, schedule: Q04DX003 (sc), vehicle: saline with Tween-80
# [4] = dose: 1200.0 mg/kg/injection, schedule: Q04DX003 (sc), vehicle: saline with Tween-80
# [5] = dose: 2400.0 mg/kg/injection, schedule: Q04DX003 (sc), vehicle: saline with Tween-80
# [6] = dose: 50.0 mg/kg/injection, schedule: Q04DX003 (ip), vehicle: saline with Tween-80
# [7] = dose: 50.0 mg/kg/injection, schedule: Q01DX010 (sc), vehicle: saline with Tween-80
compound,measurement,setting,value
O=C1C(NCC(O)CO)=C(N2CC2)C(=O)C(NCC(O)CO)=C1N1CC1 (stereo unspecified),T/C,"dose: 4.0 mg/kg/injection, schedule: Q04DX003 (ip), vehicle: saline",76 % of control
same,T/C,"dose: 8.0 mg/kg/injection, schedule: Q04DX003 (ip), vehicle: saline",69 % of control
same,T/C,"dose: 16.0 mg/kg/injection, schedule: Q04DX003 (ip), vehicle: saline",46 % of control
CC[N+](CC)(CC)CC,T/C,"dose: 1.5 mg/kg/injection, schedule: Q01DX010 (sc), vehicle: saline with Tween-80",65 % of control
same,T/C,"dose: 3.0 mg/kg/injection, schedule: Q01DX010 (sc), vehicle: saline with Tween-80",103 % of control
COC12[C@@H]3N[C@@H]3CN1C1=C(C(=O)C(NCCSSCCNC3=C(C)C(=O)C4=C(C3=O)C(COC(N)=O)[C@]3(OC)C5N[C@@H]5CN43)=C(C)C1=O)[C@@H]2COC(N)=O (stereo partly specified),T/C,"dose: 3.12 mg/kg/injection, schedule: Q04DX003 (ip), vehicle: DMSO",17 % of control
same,T/C,"dose: 12.5 mg/kg/injection, schedule: Q04DX003 (ip), vehicle: DMSO",14 % of control
same,T/C,"dose: 25.0 mg/kg/injection, schedule: Q04DX003 (ip), vehicle: DMSO",-1 % of control
O=C1c2c(O)ccc(O)c2C(=O)c2c(NCCNCCO)ccc(NCCNCCO)c21,T/C,"dose: 0.5 mg/kg/injection, schedule: Q01DX010 (sc), vehicle: acid diluted with saline",40 % of control
same,T/C,"dose: 2.0 mg/kg/injection, schedule: Q01DX010 (sc), vehicle: acid diluted with saline",62 % of control
same,T/C,"dose: 2.5 mg/kg/injection, schedule: Q04DX003 (sc), vehicle: other",59 % of control
same,T/C,"dose: 2.5 mg/kg/injection, schedule: Q04DX003 (sc), vehicle: water",28 % of control
same,T/C,"dose: 5.0 mg/kg/injection, schedule: Q04DX003 (sc), vehicle: other",34 % of control
same,T/C,"dose: 5.0 mg/kg/injection, schedule: Q04DX003 (sc), vehicle: water",9 % of control and 29 % of control
same,T/C,"dose: 10.0 mg/kg/injection, schedule: Q04DX003 (sc), vehicle: other",8 % of control
same,T/C,"dose: 10.0 mg/kg/injection, schedule: Q04DX003 (sc), vehicle: water",6 % of control
Cc1cc(NC(=S)SCc2ccc3c(c2)OCO3)ccc1Cl,T/C,[1],106 % of control
same,T/C,"dose: 300.0 mg/kg/injection, schedule: Q04DX003 (sc), vehicle: Klucel (hydroxypropylcellulose) (HPC)",104 % of control
same,T/C,"dose: 600.0 mg/kg/injection, schedule: Q04DX003 (sc), vehicle: Klucel (hydroxypropylcellulose) (HPC)",118 % of control
same,T/C,"dose: 1200.0 mg/kg/injection, schedule: Q04DX003 (sc), vehicle: Klucel (hydroxypropylcellulose) (HPC)",88 % of control
COc1cc(Cl)ccc1C,T/C,[2],108 % of control
same,T/C,[3],88 % of control
same,T/C,[4],95 % of control
same,T/C,[5],76 % of control
N=c1nc2n(cc1F)[C@@H]1O[C@H](CO)[C@@H](O)[C@@H]1O2,T/C,"dose: 300.0 mg/kg/injection, schedule: Q04DX003 (sc), vehicle: suspension in saline",104 % of control
same,T/C,"dose: 600.0 mg/kg/injection, schedule: Q04DX003 (sc), vehicle: suspension in saline",89 % of control
same,T/C,"dose: 1200.0 mg/kg/injection, schedule: Q04DX003 (sc), vehicle: suspension in saline",117 % of control
C/C(=N\NC(=S)N1CC2CCC(CC2)C1)c1cccc(C)n1,T/C,[6],79 % of control
O=C1C=CC(=O)N1c1ccc(Cl)cc1,T/C,"dose: 37.5 mg/kg/injection, schedule: Q04DX003 (sc), vehicle: Klucel (hydroxypropylcellulose) (HPC)",79 % of control
same,T/C,"dose: 75.0 mg/kg/injection, schedule: Q04DX003 (sc), vehicle: Klucel (hydroxypropylcellulose) (HPC)",91 % of control
same,T/C,[1],85 % of control
COc1cc(C)c2c(c1C=O)Oc1c(c(C)c(O)c3c1C(O)OC3=O)OC2=O (stereo unspecified),T/C,"dose: 6.25 mg/kg/injection, schedule: Q01DX010 (sc), vehicle: saline",90 % of control
same,T/C,"dose: 12.5 mg/kg/injection, schedule: Q01DX010 (sc), vehicle: saline",62 % of control and 78 % of control
same,T/C,"dose: 25.0 mg/kg/injection, schedule: Q01DX010 (sc), vehicle: saline",96 % of control and 118 % of control
same,T/C,"dose: 50.0 mg/kg/injection, schedule: Q01DX010 (sc), vehicle: saline",67 % of control and 88 % of control
same,T/C,"dose: 100.0 mg/kg/injection, schedule: Q01DX010 (sc), vehicle: saline",98 % of control
Clc1ccc(C(c2ccccc2Cl)C(Cl)Cl)cc1 (stereo unspecified),T/C,"dose: 1200.0 mg/kg/injection, schedule: Q04DX003 (sc), vehicle: saline",85 % of control
same,T/C,"dose: 2400.0 mg/kg/injection, schedule: Q04DX003 (sc), vehicle: saline",98 % of control
same,T/C,"dose: 4800.0 mg/kg/injection, schedule: Q04DX003 (sc), vehicle: saline",83 % of control
same,T/C,"dose: 9600.0 mg/kg/injection, schedule: Q04DX003 (sc), vehicle: saline",39 % of control
O=C(O)Cc1cccc2c(=O)cc(-c3ccccc3)oc12,T/C,"dose: 100.0 mg/kg/injection, schedule: Q04DX003 (ip), vehicle: suspension in saline",75 % of control
COC1=C(OC)C(=O)C(Sc2ccc3ccccc3c2)=CC1=O,T/C,"dose: 100.0 mg/kg/injection, schedule: Q04DX003 (sc), vehicle: saline with Tween-80",97 % of control
same,T/C,"dose: 200.0 mg/kg/injection, schedule: Q04DX003 (sc), vehicle: saline with Tween-80",68 % of control
same,T/C,"dose: 400.0 mg/kg/injection, schedule: Q04DX003 (sc), vehicle: saline with Tween-80",88 % of control
same,T/C,"dose: 800.0 mg/kg/injection, schedule: Q04DX003 (sc), vehicle: saline with Tween-80",61 % of control
CN1C(=O)NC(c2ccc(Cl)cc2)(c2ccc(Cl)cc2)C1=O,T/C,[7],90 % of control
same,T/C,"dose: 100.0 mg/kg/injection, schedule: Q01DX010 (sc), vehicle: saline with Tween-80",109 % of control
same,T/C,"dose: 200.0 mg/kg/injection, schedule: Q01DX010 (sc), vehicle: saline with Tween-80",60 % of control
same,T/C,"dose: 400.0 mg/kg/injection, schedule: Q01DX010 (sc), vehicle: saline with Tween-80",49 % of control
Cc1cccc(OCC(O)CN2CC2)c1 (stereo unspecified),T/C,[6],70 % of control
same,T/C,"dose: 100.0 mg/kg/injection, schedule: Q04DX003 (ip), vehicle: saline with Tween-80",58 % of control
same,T/C,"dose: 200.0 mg/kg/injection, schedule: Q04DX003 (ip), vehicle: saline with Tween-80",43 % of control
CCC1CN2C(=N1)c1ccccc1-c1cc(Cl)ccc12 (stereo unspecified),T/C,"dose: 12.5 mg/kg/injection, schedule: Q01DX010 (sc), vehicle: saline with Tween-80",108 % of control
same,T/C,"dose: 25.0 mg/kg/injection, schedule: Q01DX010 (sc), vehicle: saline with Tween-80",118 % of control
same,T/C,[7],108 % of control
NC(=O)c1ccc[n+](Cc2c(Cl)cccc2Cl)c1,T/C,"dose: 50.0 mg/kg/injection, schedule: Q04DX003 (sc), vehicle: saline",92 % of control
same,T/C,"dose: 100.0 mg/kg/injection, schedule: Q04DX003 (sc), vehicle: saline",100 % of control
CO[C@@]12[C@H](COC(N)=O)C3=C(C(=O)C(C)=C(N)C3=O)N1C[C@@H]1N[C@@H]12,T/C,"dose: 3.0 mg/kg/injection, schedule: Q04DX003 (sc), vehicle: saline",-100 % of control
same,T/C,"dose: 6.0 mg/kg/injection, schedule: Q04DX003 (sc), vehicle: saline",-88 % of control and -100 % of control (2×)
Cc1cn(C2CC(O)C(CO)O2)c(=O)[nH]c1=O (stereo unspecified),T/C,"dose: 800.0 mg/kg/injection, schedule: Q04DX003 (sc), vehicle: saline",105 % of control
same,T/C,"dose: 1600.0 mg/kg/injection, schedule: Q04DX003 (sc), vehicle: saline",89 % of control
same,T/C,"dose: 3200.0 mg/kg/injection, schedule: Q04DX003 (sc), vehicle: saline",50 % of control
same,T/C,"dose: 6400.0 mg/kg/injection, schedule: Q04DX003 (sc), vehicle: saline",62 % of control
CC(C)=CC(=O)OC1C2C(C)=CC(=O)C(O)C2(C)C2C3(O)OCC24C(CC(=O)OC14)C(C)C3O (stereo unspecified),T/C,"dose: 1.25 mg/kg/injection, schedule: Q04DX003 (sc), vehicle: distilled water + Tween-80",41 % of control
same,T/C,"dose: 2.5 mg/kg/injection, schedule: Q04DX003 (sc), vehicle: distilled water + Tween-80",82 % of control
same,T/C,"dose: 5.0 mg/kg/injection, schedule: Q04DX003 (sc), vehicle: distilled water + Tween-80",71 % of control
same,T/C,"dose: 10.0 mg/kg/injection, schedule: Q04DX003 (sc), vehicle: distilled water + Tween-80",88 % of control
CNc1cccnc1/C=N/NC(N)=S,T/C,[2],114 % of control
same,T/C,[3],61 % of control
same,T/C,[4],55 % of control
same,T/C,[5],77 % of control
